# Source: US8022056B2, “Compositions and methods for the treatment of cancer” (Tautatis, Inc, priority 2006, dated 2011)
# What was measured:
# [1] = system: U373 glioblastoma cell line; experiment: Long-term growth inhibition, crystal violet staining; assay type: cell-based, human; conditions: 10 nM, over a week
# Method: For proliferation assays tumor cell suspensions (100 μl/well) were seeded into 96-well flat bottomed microtitration plates at a density of ca. 15 cells/microscopic field (magnification 320×). After 2-3 days the culture medium was removed by suction and replaced by fresh medium (200 μl/well) containing varying concentrations of the compound of the formula 1 or vehicle (0.5% DMSO). Compound 1 was added as […] concentrated feed solutions. On every plate 16 wells served as controls and 16 wells were used per concentration of 1. After various times of incubation the cells were fixed with glutardialdehyde and stored in a refrigerator. At the end of the assay all plates were processed simultaneously (staining with 0.02% aqueous crystal violet solution (100 μl/well). Excess dye was removed by rinsing the trays with water for 20 min. The stain bound by the cells was redissolved in 70% ethanol (180 μl/well) while shaking the microplates for about 3 hours. Absorbance (proportional to cell mass) was measured at 578 nm using a BIOTEK 309 Autoreader. The results (mean values±standard deviation) were plotted as growth curves.
# The EGF-receptor independent U373 Human Glioblastoma cell line (obtained from ATCC, Rockville, USA) was cultured as above. Treatment with the compound of the formula 1 and analysis of growth inhibition was performed analogous to Example 3.
# OVCAR-3 xenograft = experiment: Mouse xenograft model OVCAR-3; assay type: in vivo; conditions: Ovarian, p53; oral twice daily dosing
# Method: (§1) The efficacy of the compound of the formula 1 was confirmed in mouse tumor xenograft models, employing the NMRI(nu/nu) strain of mice. For example, cells from the human tumor cell lines MDA-MB-231, U373, and HT29 were pre-incubated subcutaneously in several nude mice to select for the most robustly growing cell population. After having grown to a sufficient size after 2-3 weeks, a piece of about 2 mm^3 volume of the most suitable tumor was transplanted subcutaneously into the region of the thoracic mammary fat pads, an area ensuring a high degree of vascularization of the grafted tissue. […] During the course of the treatment, the weight of the animals and the size of the transplanted tumor was monitored three times a week. […] These doses are best determined separately for each individual mouse strain employed.
# (§2) To establish a solid tumour 3×10^6 tumor cells suspended in 100 μl of serum free medium (RPMI) were inoculated subcutaneously into the region of the thoracic mammary fat pads of 5 Male NMRI(nu/nu) mice of 8-10 weeks of age. […] During the course of the treatment body weight changes and tumor growth were recorded three times a week. Growth curves were plotted together with standard deviations and the significance of differences was determined using an unpaired t-test in FIG. 11. […]
# ACHN xenograft = experiment: Mouse xenograft model ACHN; assay type: in vivo; conditions: Kidney, CDKN2A; oral twice daily dosing
# Method: as §1, §2
# PC-3 xenograft = experiment: Mouse xenograft model PC-3; assay type: in vivo; conditions: Prostate, p53/PTEN; oral twice daily dosing
# Method: as §1, §2
# T-47D xenograft = experiment: Mouse xenograft model T-47D; assay type: in vivo; conditions: Breast, p53/PI3K; oral twice daily dosing
# Method: as §1, §2
# [2] = biological target: T1, ABC-G2 (breast cancer resistance protein BCRP) (Homo sapiens, UniProt Q9UNQ0); experiment: Competition with efflux of mitoxandrone in MCF-7 cells (FACS); assay type: cell-based
# T1 construct: endogenous in cells; host or cells: MCF-7 cells
# Excerpt: FIG. 6 compares the recognition of compound 1 and of the compound 6 by two frequently involved multi-drug resistance proteins ABC-B1 (glycoprotein gp170) (A), and ABC-G2 (breast cancer resistance protein BCRP) (B). Measurements were based on competition with the MDR-driven efflux of calcein-AM in Kb-V1 cells expressing high levels of gp170, or competition with the efflux of mitoxandrone in MCF-7 cells by the respective compounds within their effective concentration range. Uptake of fluorescent reporter compounds by competition with 1 or 6 was assessed by FACS as described in Mueller et al., Cancer Chemother. Pharmacol. 59, 157-164 (2007).
# T1 sequence (Q9UNQ0 whole entry): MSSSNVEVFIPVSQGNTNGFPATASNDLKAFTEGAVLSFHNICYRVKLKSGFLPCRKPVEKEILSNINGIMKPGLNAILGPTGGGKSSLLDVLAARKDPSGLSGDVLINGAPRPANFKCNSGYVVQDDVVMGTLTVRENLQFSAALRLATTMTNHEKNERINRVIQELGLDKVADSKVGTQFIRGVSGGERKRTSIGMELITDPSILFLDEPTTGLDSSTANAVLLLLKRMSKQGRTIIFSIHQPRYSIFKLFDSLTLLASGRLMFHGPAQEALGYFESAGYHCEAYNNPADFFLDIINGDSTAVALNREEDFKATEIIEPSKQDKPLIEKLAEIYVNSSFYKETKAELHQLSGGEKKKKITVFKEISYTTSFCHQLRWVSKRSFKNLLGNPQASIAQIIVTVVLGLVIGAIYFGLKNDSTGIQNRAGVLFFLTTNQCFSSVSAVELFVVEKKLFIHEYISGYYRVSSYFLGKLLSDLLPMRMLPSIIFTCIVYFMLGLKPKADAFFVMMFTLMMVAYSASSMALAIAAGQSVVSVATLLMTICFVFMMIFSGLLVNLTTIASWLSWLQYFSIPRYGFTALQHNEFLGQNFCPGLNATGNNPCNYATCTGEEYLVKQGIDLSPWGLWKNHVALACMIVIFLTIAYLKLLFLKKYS
compound,measurement,setting,value
CNC(=O)[C@@]1(N)C[C@H]2O[C@]1(C)n1c3ccccc3c3c4c(c5c6ccccc6n2c5c31)C(=O)NC4 [Compound 1],growth arrest of U373 cells,[1],almost completely effective
same,Mean % Inhibition,OVCAR-3 xenograft,78%
same,N tumors with no/neg. growth,OVCAR-3 xenograft,4 of 11
same,Mean % Inhibition,ACHN xenograft,86%
same,N tumors with no/neg. growth,ACHN xenograft,5 of 10
same,Mean % Inhibition,PC-3 xenograft,68%
same,N tumors with no/neg. growth,PC-3 xenograft,2 of 11
same,Mean % Inhibition,T-47D xenograft,81%
same,N tumors with no/neg. growth,T-47D xenograft,4 of 10
same,"separation of anti-proliferative potency range from uptake concentration for efflux transporter, versus compound 6",[2],more clearly separated
